Test results as given in ChEMBL document CHEMBL5241067, “An insight in anti-malarial potential of indole scaffold: A review” (Eur J Med Chem, 2021).
In brackets after ≈: the same amount, converted by molar mass.

What was measured:
Plasmodium falciparum [1] = assay: Antiplasmodial activity against Plasmodium falciparum DD2 assessed as growth inhibition; assay type: functional, organism-based
Plasmodium falciparum [2] = assay: Antiplasmodial activity against Plasmodium falciparum NF54 assessed as growth inhibition; assay type: functional, organism-based
Plasmodium falciparum [3] = assay: Antiplasmodial activity against multidrug resistant Plasmodium falciparum K1 assessed as growth inhibition; assay type: functional, organism-based
Plasmodium berghei = assay: In vivo antimalarial activity against Plasmodium berghei infected in mouse assessed as supression of parasitemia at 20 to 25 mg/kg, po measured for 4 days; assay type: functional; settings: dose 20-25 mg/kg, time 4 day
[4] = Cytotoxicity against HEK293 cells; assay type: toxicity, cell-based; settings: human
Plasmodium falciparum [5] = assay: Antimalarial activity against […] Plasmodium falciparum D6 assessed as growth inhibition; assay type: functional, organism-based
Plasmodium falciparum [6] = assay: Antimalarial activity against chloroquine-resistant Plasmodium falciparum W2 assessed as growth inhibition; assay type: functional, organism-based
Plasmodium falciparum [7] = assay: Antiplasmodial activity against Plasmodium falciparum; assay type: functional, organism-based
KB = assay: Cytotoxicity against human KB cells; assay type: functional; settings: read-out: ED50 (the source's name)
Plasmodium falciparum [8] = assay: Antiplasmodial activity against chloroquine, pyrimethamine and mefloquine-resistant Plasmodium falciparum assessed as growth inhibition; assay type: functional, organism-based
Plasmodium falciparum [9] = assay: Antiplasmodial activity against chloroquine-resistant Plasmodium falciparum DD2 assessed as growth inhibition; assay type: functional, organism-based
Plasmodium falciparum [10] = assay: Antiplasmodial activity against multidrug-resistant Plasmodium falciparum assessed as growth inhibition; assay type: functional

O=C1c2cc(F)ccc2-n2c1nc1ccccc1c2=O
IC50 (Plasmodium falciparum [1]): 0.1 µM
IC50 (Plasmodium falciparum [2]): 0.057 µM

Cn1c2c3cc(Br)ccc3nc-2cc2cc(Br)ccc21
IC50 (Plasmodium falciparum [3]): 0.05 µM
Activity (Plasmodium berghei): 89%

CC1(C)[C@H](Cc2[nH]c3ccccc3c2CC[N+](C)(C)O)O[C@]23OC[C@H](O)[C@H]2OC(=O)[C@]13O
IC50 [4]: 0.08 µM

N#Cc1c(-c2ccc(F)c(F)c2)cc(-c2ccc(Br)cc2)nc1-c1c[nH]c2ccccc12
IC50 (Plasmodium falciparum [5]): 6.6 µM
IC50 (Plasmodium falciparum [6]): 4.77 µM

O=C1c2cc(Br)ccc2-n2c1nc1ccc(Cl)cc1c2=O
IC50 (Plasmodium falciparum [1]): 0.123 µM
IC50 (Plasmodium falciparum [2]): 0.036 µM

Cc1cc(-c2cc(-c3ccccc3)nc(-c3c[nH]c4ccccc34)c2C#N)cc(C)c1C
IC50 (Plasmodium falciparum [5]): 1.6 µM
IC50 (Plasmodium falciparum [6]): 2.7 µM

N#Cc1c(-c2ccc(F)cc2)cc(-c2ccccc2)nc1-c1c[nH]c2ccccc12
IC50 (Plasmodium falciparum [5]): 1.47 µM
IC50 (Plasmodium falciparum [6]): 2.99 µM

O=C1NCCc2c[nH]c3ccc4c(c23)[C@@H]1[C@H](c1ccc2c(c1)OCO2)O4
IC50 (Plasmodium falciparum [7]): 3.4 µM
EC50 (KB): 23.9 µM

O=C1c2cc(Br)ccc2-n2c1nc1cc(Cl)ccc1c2=O
IC50 (Plasmodium falciparum [1]): 0.238 µM
IC50 (Plasmodium falciparum [2]): 0.036 µM

N#Cc1c(-c2ccc(F)c(F)c2)cc(-c2ccc(F)cc2)nc1-c1c[nH]c2ccccc12
IC50 (Plasmodium falciparum [5]): 6.78 µM
IC50 (Plasmodium falciparum [6]): 3.82 µM

N#Cc1c(-c2ccc(F)c(F)c2)cc(-c2ccccc2)nc1-c1c[nH]c2ccccc12
IC50 (Plasmodium falciparum [5]): 1.56 µM
IC50 (Plasmodium falciparum [6]): 1.16 µM

O=C1c2cc([N+](=O)[O-])ccc2-n2c1nc1cc(Cl)ccc1c2=O
IC50 (Plasmodium falciparum [1]): 0.031 µM
IC50 (Plasmodium falciparum [2]): 0.033 µM

Cc1cc(-c2cc(-c3ccc(F)cc3)nc(-c3c[nH]c4ccccc34)c2C#N)cc(C)c1C
IC50 (Plasmodium falciparum [5]): 5.4 µM
IC50 (Plasmodium falciparum [6]): 2.96 µM

O=C1c2ccccc2-n2c1nc1ccccc1c2=O [TRYPTANTHRIN]
IC50 (Plasmodium falciparum [2]): 0.288 µM
IC50 (Plasmodium falciparum [8]): 0.069 µg/mL (≈ 0.278 µM)
IC50 (Plasmodium falciparum [9]): 0.114 µM
Activity (Plasmodium falciparum [10]): 100 ng/mL
